Reference: paper PMC5745756, “N,N-disubstituted azines attenuate LPS-mediated neuroinflammation in microglia and neuronal apoptosis via inhibiting MAPK signaling pathways” (BMC Neuroscience, 2017)

Tests used:
Type in all cases: cell-based, murine
[1] = MTT cell viability of LPS-activated BV-2 cells; details: mouse, LPS-activated BV-2 microglial cells; 20 µM compound; percentage of the LPS-only treatment group; mean ± standard deviation, three experiments
Experimental: (§1) […] or MTT assay was performed as described by our previous publication with slight modification. In order to measure MTT and NO production, BV-2 cells were plated into a 96-well plate at a density of 4 × 10^4 cells/well. […] Then, nitrite (a soluble oxidation product of NO) was detected in the culture media by using the Griess reaction. The supernatant (50 µL) was collected and mixed with an equal volume of Griess reagent (1% sulfanilamide in phosphoric acid and 0.1% N-1-napthylethylenediamine dihydrochloride). The absorbance was measured at 570 nm by using a microplate reader. Sodium nitrite was used to create a standard curve from which the NO2 concentration was calculated. The cell viability was evaluated by spectrophotometrically measuring the reduction of yellow 3-[4,5-dimethylthiazol-2-yl]-2,5-diphenyltetrazolium bromide (MTT) to purple formazan crystals. MTT was dissolved in DMEM, added to the culture plate containing cells at a final concentration of 0.5 mg/mL, and incubated for 1 h. The medium containing the MTT solution was carefully removed, and 200 µL DMSO was added to each well. After solubilizing the stained cells to produce a formazan-colored solution, the optical density (OD) was measured on a microplate reader at 570 nm, and the results were expressed as a percentage of the LPS-treated group. The same plate was used for the NO and MTT assays. The cell supernatant was used for the NO assay, and the plated cells were used for the MTT assay.
(§2) The NO production and cell viability of LPS-activated BV-2 cells were measured after treatment with azine derivatives using Griess reagent and MTT assay, respectively.

BV-2 cells = test: MTT cell viability of LPS-activated BV-2 cells; details: at 20 µM
Experimental: as §1, §2

[2] = tested on: NO production in LPS-activated BV-2 cells; test: Nitrite (Griess) assay of NO production in LPS-activated BV-2 cells
Experimental: as §1, §2

[3] = tested on: extracellular signal-regulated kinase (ERK); test: Western blot of LPS-induced ERK phosphorylation in BV-2 cells; details: 5–20 µM; LPS 30 min, similar pattern at 24 h
Experimental: BV-2 cells were seeded in a 6-well plate at a density of 6 × 10^5 cells/well and exposed to LPS (100 ng/mL) in the presence or absence of compound 3 for required time. After treatment, cells were collected and lysed in cell lysis buffer (50 mM Tris–HCl, pH 8.0, 0.1% SDS, 150 mM NaCl, 1% NP-40, 0.02% sodium azide, 0.5% sodium deoxycholate, 100 µg/mL PMSF, and […]) for 24 h at 4 °C. The protein content was measured using a Bradford assay. Equal amounts of protein (30 µg) were separated using SDS-PAGE and transferred to a nitrocellulose membrane. The membrane was blocked for 1 h with 5% skim milk in tris-buffered saline with Tween-20 (TBST) and then incubated for 12 h with primary antibodies against α-tubulin (Sigma-Aldrich Cat. no: T5168), iNOS (Bioscience Cat. no: 610333, COX-2 (Santa Cruz Cat. no: sc-1745), ERK (Cell Signaling Cat. no: 9107s), pERK (Cell Signaling Cat. no: 5013s), JNK (Cell Signaling Cat. no: 9252s), pJNK (Cell Signaling Cat. no: 4671s), p38 (Cell Signaling Cat. no: 8690s), and pP38 (Cell Signaling Cat. no: 9211s), followed by incubation for 1 h with horseradish peroxidase-conjugated secondary antibodies (Cell Signaling) at 15 °C. […]
Fig. 3 Effect of compound 3 on MAPK pathway in LPS-induced BV-2 cells. […] The phosphorylation of p38, JNK, and ERK was measured by western blotting (a–c). […]

PGE2 = test: ELISA of PGE2 in LPS-activated BV-2 culture medium; details: 5, 10 and 20 µM, LPS 24 h
Experimental: (§3) To measure TNF-α, IL-6, and PGE2, BV-2 cells were seeded in a 24-well plate at a density of 3 × 10^5 cells/well. The cells were treated with LPS (100 ng/mL) in the presence or absence of compound 3 for 24 h, and the media was collected and centrifuged. IL-6, TNF-α, and PGE2 produced in microglial culture supernatants […] were measured by competitive enzyme immunoassay kits (R&D systems, Minneapolis, MN, USA) in accordance with the manufacturer’s protocol.
(§4) Fig. 2 Effect of compound 3 on LPS-induced iNOS and COX2 expression in BV-2 cells. BV-2 cells were pretreated with various concentrations (5, 10, and 20 µM) of compound 3 for 30 min and activated with 100 ng/mL LPS. After 6 h, the cells were collected for analysis of iNOS and COX-2 expression using western blot analysis (a–c). Similarly, LPS activation was made for 24 h as chronic BV2 activation and the iNOS and COX-2 expression was measured (d). α-Tubulin was used as the loading control. The densitometric analysis of bands was performed as described in the methods section. After 24 h, the culture medium was subsequently collected to measure the quantity of PGE2 (e), IL-6 (f), and TNF-α (g) using ELISA analysis. […]

IL-6 = test: ELISA of IL-6 in LPS-activated BV-2 culture medium; details: LPS 24 h
Experimental: as §3, §4

## COc1cc(/C=C/C=N/N=C/C=C/c2ccc(O)c(OC)c2)ccc1O [Compound 3, 4,4′-(1E,1′E,3E,3′E)-3,3′-(hydrazine-1,2-diylidene)bis(prop-1-ene-1-yl-3-ylidene)bis(2-methoxyphenol)]
[1]
  viability at 24 h, 20 µM: 101 ± 2.53%
BV-2 cells
  Cytotoxicity to BV-2 cells: without cytotoxicity
[2]; LPS-activated BV-2 cells
  LPS-induced NO production: strongly inhibited
[2]; Mus musculus, BV-2, 100 ng/mL LPS, 24 h, Griess reaction, read-out: IC50, concentration that caused 50% inhibition of NO production in LPS-activated BV-2 cells
  IC50: 12.5 µM
[3]
  Phosphorylation of ERK: did not alter
PGE2
  LPS-activated PGE2 production: reduced
IL-6; 20 µM
  IL-6 secretion: noticeable activity
IL-6; 5 and 10 µM
  IL-6 secretion: did not significantly inhibit
